Among the data in patent US9718817B2, “Aryl and heteroaryl ether compounds as ROR gamma modulators” (Glenmark Pharmaceuticals S.A., priority 2014, dated 2017) are inhibition and IC50 values, retold here.

The target in this test is T1, GST-tagged ROR gamma ligand binding domain (LBD) (Homo sapiens, UniProt P51449).
T1 construct: purchased Invitrogen
T1 sequence (P51449 269-508 limits assumed): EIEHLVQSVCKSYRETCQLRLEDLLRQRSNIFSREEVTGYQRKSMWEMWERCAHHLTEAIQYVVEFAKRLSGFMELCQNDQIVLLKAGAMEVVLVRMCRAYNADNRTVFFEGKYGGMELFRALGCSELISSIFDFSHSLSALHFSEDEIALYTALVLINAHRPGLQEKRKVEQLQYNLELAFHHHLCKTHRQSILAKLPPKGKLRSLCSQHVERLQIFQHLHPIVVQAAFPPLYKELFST
Briefly: TR-FRET assay for ROR gamma (LanthaScreen co-activator peptide recruitment). It counts as biochemical. The following applies: for inhibition at 1 µM: compound 1 μM; for inhibition at 1 µM / inhibition at 10 µM: TR-FRET ratio 520/495, percent of control; for inhibition at 10 µM: compound 10 μM; for pIC50: class symbols, from dose response curve. The text has this:
The compounds described herein were screened for ROR gamma modulator activity using the TR-FRET assay by Lantha Screen as described in JBC 2011, 286, 26: 22707-10; and Drug Metabolism and Disposition 2009, 37, 10: 2069-78.
The assay is based on the principle that binding of the agonist to the ROR gamma causes a conformational change around helix 12 in the ligand binding domain, resulting in higher affinity for the co-activator peptide. ROR gamma being constitutively active, the Fluorescein-D22 co-activator peptide used in the assay is recruited in the absence of a ligand. Binding of the co-activator peptide, causes an increase in the TR-FRET signal while binding of an antagonist decreases the recruitment of the co-activator peptide, causing a decrease in the TR-FRET signal compared to control with no compound. The assay was performed using a two-step procedure, pre-incubation step with the compound followed by the detection step on addition of the anti-GST tagged terbium (Tb) and fluorescein tagged fluorophores as the acceptor.
Test compounds or reference compounds such as T0901317 (Calbiochem) were dissolved in dimethylsulfoxide (DMSO) to prepare 10.0 mM stock solutions and diluted to the desired concentration. The final concentration of DMSO in the reaction was 4% (v/v). The assay mixture was prepared by mixing 10 nM of the GST-tagged ROR gamma ligand binding domain (LBD) in the assay buffer containing 25 mM HEPES (pH 7.4), 100 mM NaCl, 5 mM DTT and 0.01% BSA with or without the desired concentration of the compound. The reaction was incubated at 22° C. for 1 hour. The pre-incubation step was terminated by addition of the detection mixture containing 300 nM Fluorescein-D22 co-activator peptide and 10 nM lantha screen Tb-anti GST antibody into the reaction mixture. After shaking for 5 minutes the reaction was further incubated for 1 hour at room temperature and read at 4° C. on an Infinite F500 reader as per the kit instructions (Invitrogen). The inhibition of test compound was calculated based on the TR-FRET ratio of 520/495. The activity was calculated as a percent of control reaction. IC50 values were calculated from dose response curve by nonlinear regression analysis using GraphPad Prism software.
Percentage inhibition at concentrations of 1.0 μM and 10.0 μM are given in the table along with IC50 (nM) details for selected examples.
A general note: Time-resolved FRET reads energy transfer from a long-lived donor to a nearby acceptor.

Molecules are shown by their SMILES. pIC50: −log10 of the molar value.

The inhibition is the share of the control response that was lost under treatment. `CCS(=O)(=O)c1ccc(CC(=O)Nc2ccc(OC(C)(C)c3ccc(F)c(F)c3)cc2)cc1` [Example 1, N-(4-{[2-(3,4-Difluorophenyl)propan-2-yl]oxy}phenyl)-2-[4(ethylsulfonyl)phenyl]acetamide]: the inhibition at 1 µM came to 47.7% and the inhibition at 10 µM came out at 74.3%.

Consider `CCS(=O)(=O)c1ccc(CC(=O)Nc2ccc(OC(C)(C)c3ccc(F)cc3F)cc2)cc1` [Example 2, N-(4-{[2-(2,4-Difluorophenyl)propan-2-yl]oxy}phenyl)-2-[4-(ethylsulfonyl)phenyl]acetamide], for which the inhibition at 1 µM is 66.9% and the inhibition at 10 µM amounted to 78%.

For orientation: pIC50 means the IC50 on a negative log10 scale, so that one unit is a factor of ten. The low end stands for a high IC50, the high end for a low IC50. For the compound `CCS(=O)(=O)c1ccc(CC(=O)Nc2ccc(OC(C)(C)c3ccc(Cl)cc3Cl)cc2)cc1` [Example 3, N-(4-{[2-(2,4-Dichlorophenyl)propan-2-yl]oxy}phenyl)-2-[4-(ethylsulfonyl)phenyl]acetamide], the pIC50 was above 7.30, the inhibition at 1 µM is 81.3% and the inhibition at 10 µM came out at 83.4%.

For `CCS(=O)(=O)c1ccc(CC(=O)Nc2ccc(OC(C)(C)c3ccc(Cl)c(Cl)c3)cc2)cc1` [Example 4, N-(4-{[2-(3,4-Dichlorophenyl)propan-2-yl]oxy}phenyl)-2-[4-(ethylsulfonyl)phenyl]acetamide], the pIC50 is above 7.30, the inhibition at 1 µM came out at 80.5% and the inhibition at 10 µM was determined as 86.4%.

`CCS(=O)(=O)c1ccc(CC(=O)Nc2ccc(OC(C)(C)c3cc(Cl)cc(Cl)c3)cc2)cc1` [Example 5, N-(4-{[2-(3,5-Dichlorophenyl)propan-2-yl]oxy}phenyl)-2-[4-(ethylsulfonyl)phenyl]acetamide]: the inhibition at 1 µM was 58.2% and the inhibition at 10 µM was 66.9%.

Take `CCS(=O)(=O)c1ccc(CC(=O)Nc2ccc(OC(C)(C)c3ccc(Cl)cc3F)cc2)cc1` [Example 6, N-(4-{[2-(4-Chloro-2-fluorophenyl)propan-2-yl]oxy}phenyl)-2-[4-(ethylsulfonyl)phenyl]acetamide]: the inhibition at 1 µM amounted to 77.5% and the inhibition at 10 µM stood at 83.1%.

On to `CCS(=O)(=O)c1ccc(CC(=O)Nc2ccc(OC(C)(C)c3ccc(Cl)c(F)c3)cc2)cc1` [Example 7, N-{4-[1-(4-Chloro-3-fluoro-phenyl)-1-methyl-ethoxy]-phenyl}-2-(4-ethanesulfonyl-phenyl)-acetamide], for which the inhibition at 1 µM is 74.4% and the inhibition at 10 µM is 85.1%.

On to `CCS(=O)(=O)c1ccc(CC(=O)Nc2ccc(OC(C)(C)c3ccc(F)cc3Cl)cc2)cc1` [Example 8, N-(4-{[2-(2-Chloro-4-fluorophenyl)propan-2-yl]oxy}phenyl)-2-[4-(ethylsulfonyl)phenyl]acetamide], for which the pIC50 is above 7.30, the inhibition at 1 µM worked out at 85% and the inhibition at 10 µM amounted to 87.8%.

In the case of `CCS(=O)(=O)c1ccc(CC(=O)Nc2ccc(OC(C)(C)c3ccc(C(F)(F)F)cc3)cc2)cc1` [Example 9, 2-[4-(Ethylsulfonyl)phenyl]-N-[4-({2-[4-(trifluoromethyl)phenyl]propan-2-yl}oxy)phenyl]acetamide], the pIC50 was above 7.30, the inhibition at 1 µM came to 86.5% and the inhibition at 10 µM amounted to 89%.

`CCS(=O)(=O)c1ccc(CC(=O)Nc2ccc(OC(C)(C)c3ccc(C(F)(F)F)c(F)c3)cc2)cc1` [Example 10, 2-(4-Ethanesulfonyl-phenyl)-N-{4-[1-(3-fluoro-4-trifluoromethyl-phenyl)-1-methyl-ethoxy]-phenyl}-acetamide]: the inhibition at 1 µM was 70.9% and the inhibition at 10 µM worked out at 81.5%.

On to `CCS(=O)(=O)c1ccc(CC(=O)Nc2ccc(OC(C)(C)c3ncc(Cl)cc3Cl)cc2)cc1` [Example 11, N-{4-[1-(3,5-Dichloro-pyridin-2-yl)-1-methyl-ethoxy]-phenyl}-2-(4-ethanesulfonyl-phenyl)-acetamide], for which the pIC50 was above 7.30, the inhibition at 1 µM was 84.3% and the inhibition at 10 µM amounted to 89%.

On to `CCC(CC)(Oc1ccc(NC(=O)Cc2ccc(S(=O)(=O)CC)cc2)cc1)c1ccc(Cl)c(F)c1` [Example 12, N-{4-[1-(4-Chloro-3-fluoro-phenyl)-1-ethyl-propoxy]-phenyl}-2-(4-ethanesulfonyl-phenyl)-acetamide], for which the pIC50 is 7.00 to 7.30, the inhibition at 1 µM was 73.9% and the inhibition at 10 µM is 85.4%.

Turning to `CCC(CC)(Oc1ccc(NC(=O)Cc2ccc(S(=O)(=O)CC)cc2)cc1)c1ccc(F)cc1F` [Example 13, N-{4-[1-(2,4-Difluoro-phenyl)-1-ethyl-propoxy]-phenyl}-2-(4-ethanesulfonyl-phenyl)-acetamide], the inhibition at 1 µM turned out to be 56.2% and the inhibition at 10 µM turned out to be 68.8%.

Turning to `CCn1c(C(C)(C)Oc2ccc(NC(=O)Cc3ccc(S(=O)(=O)CC)cc3)cc2)nc2ccc(F)cc21` [Example 14, N-(4-{[2-(1-ethyl-6-fluoro-1H-benzimidazol-2-yl)propan-2-yl]oxy}phenyl)-2-[4-(ethylsulfonyl)phenyl]acetamide], the pIC50 is above 7.30, the inhibition at 1 µM was 88.9% and the inhibition at 10 µM was 93.3%.

As for `CCn1c(C(C)(C)Oc2ccc(NC(=O)Cc3ccc(S(=O)(=O)CC)cc3)cc2)nc2cc(F)ccc21` [Example 15, 2-(4-Ethanesulfonyl-phenyl)-N-{4-[1-(1-ethyl-5-fluoro-1H-benzoimidazol-2-yl)-1-methyl-ethoxy]-phenyl}-acetamide], the pIC50 was above 7.30, the inhibition at 1 µM is 83% and the inhibition at 10 µM worked out at 85.2%.

As to `CCn1c(C(C)(C)Oc2ccc(NC(=O)Cc3ccc(S(=O)(=O)CC)cc3)cc2)nc2cc(Cl)ccc21` [Example 16, N-(4-{[2-(5-Chloro-1-ethyl-1H-benzimidazol-2-yl)propan-2-yl]oxy}phenyl)-2-[4-(ethylsulfonyl)phenyl]acetamide], the pIC50 was above 7.30, the inhibition at 1 µM is 88.6% and the inhibition at 10 µM is 94.3%.

With `CCn1c(C(C)(C)Oc2ccc(NC(=O)Cc3ccc(S(=O)(=O)CC)cc3)cc2)nc2ccc(Cl)cc21` [Example 17, N-(4-{[2-(6-Chloro-1-ethyl-1H-benzimidazol-2-yl)propan-2-yl]oxy}phenyl)-2-[4-(ethylsulfonyl)phenyl]acetamide], the pIC50 is above 7.30, the inhibition at 1 µM worked out at 88.7% and the inhibition at 10 µM was determined as 94.3%.

On to `CCS(=O)(=O)c1ccc(CC(=O)Nc2ccc(OC(C)(C)c3nc4ccc(Cl)cc4n3C)cc2)cc1` [Example 18, N-{4-[1-(6-Chloro-1-methyl-1H-benzoimidazol-2-yl)-1-methyl-ethoxy]-phenyl}-2-(4-ethanesulfonyl-phenyl)-acetamide], for which the pIC50 is below 7.00, the inhibition at 1 µM is 78.6% and the inhibition at 10 µM is 91%.

`CCn1c(C(C)(C)Oc2ccc(NC(=O)Cc3ccc(S(=O)(=O)CC)cc3)cc2)nc2cccc(Cl)c21` [Example 19, N-(4-{[2-(7-Chloro-1-ethyl-1H-benzimidazol-2-yl)propan-2-yl]oxy}phenyl)-2-[4-(ethylsulfonyl)phenyl]acetamide]: the pIC50 was 7.00 to 7.30, the inhibition at 1 µM is 85.5% and the inhibition at 10 µM was determined as 88.9%.

As to `CCS(=O)(=O)c1ccc(CC(=O)Nc2ccc(OC(C)(C)c3nc4cc(F)ccc4n3C(C)C)cc2)cc1` [Example 20, 2-(4-Ethanesulfonyl-phenyl)-N-{4-[1-(5-fluoro-1-isopropyl-1H-benzoimidazol-2-yl)-1-methyl-ethoxy]-phenyl}-acetamide], the pIC50 is below 7.00, the inhibition at 1 µM was 79.8% and the inhibition at 10 µM came to 85.2%.

As for `CCn1c(C(F)(F)Oc2ccc(NC(=O)Cc3ccc(S(=O)(=O)CC)cc3)cc2)nc2cc(Cl)ccc21` [Example 22, N-{4-[(5-Chloro-1-ethyl-1H-benzoimidazol-2-yl)-difluoro-methoxy]-phenyl}-2-(4-ethanesulfonyl-phenyl)-acetamide], the inhibition at 1 µM turned out to be 74.4% and the inhibition at 10 µM is 82.8%.
